Values of other authors in patent publication EP2231118B2, “SUSPENSION COMPRISING NON-MICRONIZED EZETIMIBE MICRO-PARTICLES” (KRKA, tovarna zdravil, d.d., Novo mesto, priority 2007, dated 2009).

solubility in water: practically insoluble
SMILES: O=C1[C@H](CC[C@H](O)c2ccc(F)cc2)[C@@H](c2ccc(O)cc2)N1c1ccc(F)cc1 [Ezetimibe, 1-(4-fluorophenyl)-3(R)-[3-(4-fluorophenyl)-3(S)-hydroxypropyl]-4(S)-(4-hydroxyphenyl)-2-azetidinone]
